Marks after values point to notes of the source that are not given here. Peptide text beside a SMILES is read from it. * marks the point of attachment. X71 = O=C1C=CC(=O)N1c1cccc(CCCCCC(=O)*)c1; X46 = O=C1C=CC(=O)N1c1cccc(CCCCC(=O)*)c1; X49 = O=C1C=CC(=O)N1c1ccccc1CCCCCC(=O)*; X79 = O=C1C=CC(=O)N1c1cccc(CCC(=O)*)c1
What was measured:
[1] = test system: choroidal neovascularization; test: Choroidal neovascularization in rats (laser photocoagulation, FFA); type: in vivo; conditions: BN rats
Protocol: 6-8 weeks male BN rats were fully anesthetized by intraperitoneal injection of 846 compound anesthetic with a concentration of 0.5 mL/kg. Compound tropicamide eye drops were used once 5 min before laser photocoagulation to fully dilate the pupils of both eyes. The animals were fixed and subjected to krypton laser photocoagulation equidistantly around an optic disc with the aid of a −53.00D corneal contact lens at a distance of 2PD from the optic disc. A total of 8 photocoagulation spots were obtained. The laser wavelength was 647.1 nm, the power was 350 mW, and the diameter and time of the photocoagulation spots were 50 μm and 0.05 s respectively. Fundus photography was performed immediately after photocoagulation. FFA, histopathology and transmission electron microscopy were performed on the days 3, 7, 14, 21 and 28 after photocoagulation respectively.
Through fundus photography and FFA examination, it was confirmed that the fluorescein leakage of the photocoagulation spot reached its peak on day 21 after photocoagulation. At the same time, histopathological examination was carried out.
Rats with successful modeling were randomly grouped, with 5 rats in each group. The groups were marked as a negative control group and X1-X90 treatment groups respectively. The rats were injected with normal saline and X1-X90 (the doses of X1-X90 were each 0.05 μM) in the vitreous chamber once a day for 1 week. FFA examination was carried out 3 days, 7 days, 14 days and 28 days after administration.

[2] = test system: xylene-induced ear swelling; test: Xylene-induced mouse ear swelling; type: in vivo; conditions: Kunming mice, injected once a day for 5 days; for Swelling degree / Swelling degree (mg): right minus left ear piece weight 2 h after xylene; for Inhibition rate (%): xylene-induced ear swelling
Method in brief: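 Kunming mice dosed by injection once daily for 5 days; 1 h after last dose, 0.05 mL xylene applied to right ear, left ear untreated. Mice killed 2 h later; punched ear pieces weighed. Swelling degree = right minus left ear weight; swelling rate = swelling degree/left ear weight ×100%.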

[3] = test system: carrageenan-induced toe swelling; test: Carrageenan-induced toe swelling in rats; type: in vivo; conditions: SD rats; for Swelling degree 1 h: 1 h after carrageenan; for Swelling degree 3 h: 3 h after carrageenan; for Swelling degree 5 h: 5 h after carrageenan; for Swelling degree 7 h: 7 h after carrageenan
Method in brief: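 Rats dosed by injection once daily for 3 d, controls given equal-volume saline. Right hind paw volume measured by water displacement to a marked joint line; swelling degree (mL) is paw volume after carrageenan inflammation minus volume before.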

[4] = test system: retinal neovascularization (OIR model); test: Retinal vessels in OIR mice; type: in vivo, C57/B16 mice; conditions: for Area of neovascular plexus (mm^2): dose 0.05 μM in the vitreous chamber on day 13, retinal vessels evaluated on day 17; for Inhibition rate (%): dose 0.05 μM in the vitreous chamber on day 13, retinal vessels evaluated on day 17, vs negative control
Excerpt: Establishment of an OIR model: Young mice and their mothers were exposed in a 75% hyperoxic environment from day 7 to day 12 after the birth of C57/B16 mice, which caused capillaries in their central retina to disappear rapidly. The mice were returned to the indoor air on day 12, retinal vessels exposed to hyperoxia quickly disappeared, causing extensive abnormal neoangiogenesis, and the central part of the retina remained largely avascular for a long time. After the blood vessels disappeared completely, the mice were injected with normal saline (a negative group), X1-X12, X13-X44, X45-X90 in the vitreous chamber on day 13 respectively, and retinal vessels were evaluated on day 17 ([…] of Texas red labeled tomato agglutinin was injected into the left ventricle to mark unclosed vessels and circulated for 5 min).

[5] = test system: human retinal capillary endothelial cells (HRCECs); test: MTT proliferation inhibition on HRCECs; type: cell-based; conditions: 48 h; for A570 nm-A630 nm: mean±SD
Method in brief: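 HRCECs seeded at 3.0×10^4 cells/mL, adhered overnight, then exposed to polypeptide for 48 h at 37 °C, 5% CO2. MTT added 4 h, formazan dissolved in DMSO, absorbance 570/630 nm; PIR (%) = 1 − treated/negative control, mean±SD of three independent runs.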

[6] = day 3 after administration, total light spot number was 297, 0.05 μM in the vitreous chamber once a day for 1 week
[7] = day 7 after administration, total light spot number was 186, 0.05 μM in the vitreous chamber once a day for 1 week
[8] = day 14 after administration, total light spot number was 137, 0.05 μM in the vitreous chamber once a day for 1 week
[9] = day 28 after administration, total light spot number was 69, 0.05 μM in the vitreous chamber once a day for 1 week

| SMILES | CNV Incidence (%) [1, 6] [%] | Leakage Light spot number [1, 6] | CNV Incidence (%) [1, 7] [%] | Leakage Light spot number [1, 7] | CNV Incidence (%) [1, 8] [%] | Leakage Light spot number [1, 8] | CNV Incidence (%) [1, 9] [%] | Leakage Light spot number [1, 9] | Inhibition rate (%) ([2]; dose 2 mg/kg) | Inhibition rate (%) ([2]; dose 4 mg/kg) | Swelling degree (mg) ([2]; dose 8 mg/kg) | Inhibition rate (%) ([2]; dose 8 mg/kg) | Swelling degree 1 h ([3]; 2.0 mg/kg once a day for 3 d) [mg] | Swelling degree 3 h ([3]; 2.0 mg/kg once a day for 3 d) [mg] | Swelling degree 5 h ([3]; 2.0 mg/kg once a day for 3 d) [mg] | Swelling degree 7 h ([3]; 2.0 mg/kg once a day for 3 d) [mg] | Swelling degree 1 h ([3]; 4.0 mg/kg once a day for 3 d) [mg] | Swelling degree 3 h ([3]; 4.0 mg/kg once a day for 3 d) [mg] | Swelling degree 5 h ([3]; 4.0 mg/kg once a day for 3 d) [mg] | Swelling degree 7 h ([3]; 4.0 mg/kg once a day for 3 d) [mg] | also measured |
| --- | --- | --- | --- | --- | --- | --- | --- | --- | --- | --- | --- | --- | --- | --- | --- | --- | --- | --- | --- | --- | --- |
| C[C@H](NC(=O)CNC(=O)[C@H](CCCNC(=N)N)NC(=O)CCc1cccc(N2C(=O)C=CC2=O)c1)C(=O)N[C@@H](CC(=O)O)C(=O)N[C@@H](CCCNC(=N)N)C(=O)N[C@@H](C)C(=O)NCC(=O)NCC(=O)NCC(=O)NCC(=O)N[C@@H](CCCNC(=N)N)C(=O)NCC(=O)N[C@@H](CC(=O)O)C(=O)O [X26] (X79-RGADRAGGGGRGD-OH) | 55.22 | 164 | 49.46 | 92 | 45.26 | 62 | 43.48 | 30 | 5.62 | 7.22 | 4.54 ± 0.61** mg | 49.76 | 0.28 ± 0.17 | 0.31 ± 0.18 | 0.42 ± 0.11 | 0.39 ± 0.12 | 0.25 ± 0.18 | 0.31 ± 0.13 | 0.40 ± 0.15 | 0.30 ± 0.16 | Swelling degree ([2]; dose 2 mg/kg): 5.88 ± 0.72 mg; Swelling degree ([2]; dose 4 mg/kg): 5.78 ± 0.62 mg; Area of neovascular plexus (mm^2) [4]: 0.104 ± 0.001 mm^2; Inhibition rate (%) [4]: 50.94%**; Inhibition rate (%) ([5]; dose 0.05 μM): 41.47%*; A570 nm-A630 nm ([5]; dose 0.05 μM): 0.7736 ± 0.06908; Inhibition rate (%) ([5]; dose 0.1 μM): 48.48%**; A570 nm-A630 nm ([5]; dose 0.1 μM): 0.6810 ± 0.02943; Inhibition rate (%) ([5]; dose 0.2 μM): 68.51%*; A570 nm-A630 nm ([5]; dose 0.2 μM): 0.4162 ± 0.00082 |
| C[C@H](NC(=O)CNC(=O)[C@H](CCCNC(=N)N)NC(=O)CCCCc1cccc(N2C(=O)C=CC2=O)c1)C(=O)N[C@@H](CC(=O)O)C(=O)N[C@@H](CCCNC(=N)N)C(=O)N[C@@H](C)C(=O)NCC(=O)NCC(=O)NCC(=O)NCC(=O)N[C@@H](CCCNC(=N)N)C(=O)NCC(=O)N[C@@H](CC(=O)O)C(=O)O [X28] (X46-RGADRAGGGGRGD-OH) | 50.17 | 149 | 46.77 | 87 | 45.26 | 62 | 40.58 | 28 | 33.87 | 15.73 | 4.12 ± 0.93* mg | 21.99 | 0.29 ± 0.13 | 0.35 ± 0.15 | 0.45 ± 0.17 | 0.36 ± 0.14 | 0.28 ± 0.15 | 0.34 ± 0.11 | 0.37 ± 0.17 | 0.35 ± 0.18 | Swelling degree (mg) ([2]; dose 2 mg/kg): 5.25 ± 0.56** mg; Swelling degree ([2]; dose 4 mg/kg): 4.86 ± 0.63 mg; Area of neovascular plexus (mm^2) [4]: 0.088 ± 0.004 mm^2; Inhibition rate (%) [4]: 58.49%**; Inhibition rate (%) ([5]; dose 0.05 μM): 48.58%*; A570 nm-A630 nm ([5]; dose 0.05 μM): 0.6796 ± 0.03488; Inhibition rate (%) ([5]; dose 0.1 μM): 52.72%**; A570 nm-A630 nm ([5]; dose 0.1 μM): 0.6249 ± 0.09489; Inhibition rate (%) ([5]; dose 0.2 μM): 69.71%*; A570 nm-A630 nm ([5]; dose 0.2 μM): 0.4004 ± 0.02963 |
| C[C@H](NC(=O)CNC(=O)[C@H](CCCNC(=N)N)NC(=O)CCCCCc1cccc(N2C(=O)C=CC2=O)c1)C(=O)N[C@@H](CC(=O)O)C(=O)N[C@@H](CCCNC(=N)N)C(=O)N[C@@H](C)C(=O)NCC(=O)NCC(=O)NCC(=O)NCC(=O)N[C@@H](CCCNC(=N)N)C(=O)NCC(=O)N[C@@H](CC(=O)O)C(=O)O [X29] (X71-RGADRAGGGGRGD-OH) | 54.21 | 161 | 45.70 | 85 | 40.88 | 56 | 39.13 | 27 | 12.84 | 20.39 | 3.86 ± 0.45** mg | 38.04 | 0.27 ± 0.16 | 0.35 ± 0.18 | 0.36 ± 0.19 | 0.33 ± 0.17 | 0.22 ± 0.12 | 0.34 ± 0.15 | 0.35 ± 0.13 | 0.32 ± 0.17 | Swelling degree ([2]; dose 2 mg/kg): 5.43 ± 0.91 mg; Swelling degree (mg) ([2]; dose 4 mg/kg): 4.96 ± 0.1* mg; Area of neovascular plexus (mm^2) [4]: 0.109 ± 0.012 mm^2; Inhibition rate (%) [4]: 48.58%*; Inhibition rate (%) ([5]; dose 0.05 μM): 52.67%*; A570 nm-A630 nm ([5]; dose 0.05 μM): 0.6256 ± 0.09549; Inhibition rate (%) ([5]; dose 0.1 μM): 58.02%**; A570 nm-A630 nm ([5]; dose 0.1 μM): 0.5549 ± 0.02011; Inhibition rate (%) ([5]; dose 0.2 μM): 61.03%*; A570 nm-A630 nm ([5]; dose 0.2 μM): 0.5151 ± 0.01135 |
| C[C@H](NC(=O)CNC(=O)[C@H](CCCNC(=N)N)NC(=O)CCCCCc1ccccc1N1C(=O)C=CC1=O)C(=O)N[C@@H](CC(=O)O)C(=O)N[C@@H](CCCNC(=N)N)C(=O)N[C@@H](C)C(=O)NCC(=O)NCC(=O)NCC(=O)NCC(=O)N[C@@H](CCCNC(=N)N)C(=O)NCC(=O)N[C@@H](CC(=O)O)C(=O)O [X17] (X49-RGADRAGGGGRGD-OH) | 54.88 | 163 | 48.39 | 90 | 42.34 | 58 | 40.58 | 28 | 25.36 | 28.89 | 3.53 ± 0.1** mg | 43.34 | 0.27 ± 0.15 | 0.32 ± 0.14 | 0.38 ± 0.17 | 0.35 ± 0.19 | 0.24 ± 0.12 | 0.31 ± 0.19 | 0.37 ± 0.17 | 0.34 ± 0.15 | Swelling degree (mg) ([2]; dose 2 mg/kg): 4.65 ± 0.79* mg; Swelling degree (mg) ([2]; dose 4 mg/kg): 4.43 ± 0.75* mg; Area of neovascular plexus (mm^2) [4]: 0.084 ± 0.009 mm^2; Inhibition rate (%) [4]: 60.38%**; Inhibition rate (%) ([5]; dose 0.05 μM): 55.10%*; A570 nm-A630 nm ([5]; dose 0.05 μM): 0.5934 ± 0.03887; Inhibition rate (%) ([5]; dose 0.1 μM): 62.16%**; A570 nm-A630 nm ([5]; dose 0.1 μM): 0.5001 ± 0.02347; Inhibition rate (%) ([5]; dose 0.2 μM): 65.08%*; A570 nm-A630 nm ([5]; dose 0.2 μM): 0.4616 ± 0.02184 |

From patent US20200270309A1, “MALEIMIDE GROUP-MODIFIED ANGIOGENESIS INHIBITOR HM-1 AND USE THEREOF” (NANJING ANJI BIOLOGICAL TECHNOLOGY CO., LTD, priority 2017, published 2020)
